Reference: article PMC7824535, “Inhibitory Effect of Antidesma bunius Fruit Extract on Carbohydrate Digestive Enzymes Activity and Protein Glycation In Vitro” (Antioxidants, 2020)
Converted amounts (≈) assume the structure as drawn.

Target: T1, intestinal maltase
T1 construct: gene Mgam; native, supernatant of rat intestinal acetone powder, not purified; maltase activity of several enzymes
Experiment: glucose release by glucose oxidase method, […] nm
Format: biochemical
Details: maltose substrate (86 mM stock, 30 µL), 0.1 M phosphate buffer pH 6.9, 37 °C, 30 min; crude rat intestinal extract

- IC50 Values / Maltase: 0.89 ± 0.07 µg/mL (≈ 1.38 µM)
SMILES: C[C@H]1O[C@H](O[C@H]2[C@H](O)[C@@H](O)[C@@H](O[C@H]3[C@H](O)[C@@H](O)C(O)O[C@@H]3CO)O[C@@H]2CO)[C@H](O)[C@@H](O)[C@@H]1N[C@H]1C=C(CO)[C@@H](O)[C@H](O)[C@H]1O (stereo partly shown) [Acarbose]
